Experimental data reported in patent US11028075B2, “Therapeutic compounds and methods of use thereof” (GENENTECH, INC., priority 2018, dated 2021).

Legend:
[1] = biological target: T1, hNav1.7 (Homo sapiens (Human), UniProt Q15858); assay: Tritiated compound binding to membranes from cells heterologously expressing hNav1.7 and the β1 subunit (Nav1.7 LBA); details: competitive binding vs [3H]compound, membranes with hNav1.7 and β1 subunit; read-out: Nav1.7 LBA EVO IC50
Outline: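 Membranes from cells expressing hNav1.7 with β1 were incubated at room temperature with a tritiated competitive Nav1.7 inhibitor plus test compound in 100 mM NaCl, 20 mM Tris pH 7.4, 0.01% BSA; nonspecific binding was set with 1 μM unlabeled compound. Incubation was 18 h with […] radioligand, or 3 h with […]. Bound ligand was filtered and counted, and IC50 came from a 4-parameter fit.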
Target sequence in this assay (Q15858 whole entry, looked up): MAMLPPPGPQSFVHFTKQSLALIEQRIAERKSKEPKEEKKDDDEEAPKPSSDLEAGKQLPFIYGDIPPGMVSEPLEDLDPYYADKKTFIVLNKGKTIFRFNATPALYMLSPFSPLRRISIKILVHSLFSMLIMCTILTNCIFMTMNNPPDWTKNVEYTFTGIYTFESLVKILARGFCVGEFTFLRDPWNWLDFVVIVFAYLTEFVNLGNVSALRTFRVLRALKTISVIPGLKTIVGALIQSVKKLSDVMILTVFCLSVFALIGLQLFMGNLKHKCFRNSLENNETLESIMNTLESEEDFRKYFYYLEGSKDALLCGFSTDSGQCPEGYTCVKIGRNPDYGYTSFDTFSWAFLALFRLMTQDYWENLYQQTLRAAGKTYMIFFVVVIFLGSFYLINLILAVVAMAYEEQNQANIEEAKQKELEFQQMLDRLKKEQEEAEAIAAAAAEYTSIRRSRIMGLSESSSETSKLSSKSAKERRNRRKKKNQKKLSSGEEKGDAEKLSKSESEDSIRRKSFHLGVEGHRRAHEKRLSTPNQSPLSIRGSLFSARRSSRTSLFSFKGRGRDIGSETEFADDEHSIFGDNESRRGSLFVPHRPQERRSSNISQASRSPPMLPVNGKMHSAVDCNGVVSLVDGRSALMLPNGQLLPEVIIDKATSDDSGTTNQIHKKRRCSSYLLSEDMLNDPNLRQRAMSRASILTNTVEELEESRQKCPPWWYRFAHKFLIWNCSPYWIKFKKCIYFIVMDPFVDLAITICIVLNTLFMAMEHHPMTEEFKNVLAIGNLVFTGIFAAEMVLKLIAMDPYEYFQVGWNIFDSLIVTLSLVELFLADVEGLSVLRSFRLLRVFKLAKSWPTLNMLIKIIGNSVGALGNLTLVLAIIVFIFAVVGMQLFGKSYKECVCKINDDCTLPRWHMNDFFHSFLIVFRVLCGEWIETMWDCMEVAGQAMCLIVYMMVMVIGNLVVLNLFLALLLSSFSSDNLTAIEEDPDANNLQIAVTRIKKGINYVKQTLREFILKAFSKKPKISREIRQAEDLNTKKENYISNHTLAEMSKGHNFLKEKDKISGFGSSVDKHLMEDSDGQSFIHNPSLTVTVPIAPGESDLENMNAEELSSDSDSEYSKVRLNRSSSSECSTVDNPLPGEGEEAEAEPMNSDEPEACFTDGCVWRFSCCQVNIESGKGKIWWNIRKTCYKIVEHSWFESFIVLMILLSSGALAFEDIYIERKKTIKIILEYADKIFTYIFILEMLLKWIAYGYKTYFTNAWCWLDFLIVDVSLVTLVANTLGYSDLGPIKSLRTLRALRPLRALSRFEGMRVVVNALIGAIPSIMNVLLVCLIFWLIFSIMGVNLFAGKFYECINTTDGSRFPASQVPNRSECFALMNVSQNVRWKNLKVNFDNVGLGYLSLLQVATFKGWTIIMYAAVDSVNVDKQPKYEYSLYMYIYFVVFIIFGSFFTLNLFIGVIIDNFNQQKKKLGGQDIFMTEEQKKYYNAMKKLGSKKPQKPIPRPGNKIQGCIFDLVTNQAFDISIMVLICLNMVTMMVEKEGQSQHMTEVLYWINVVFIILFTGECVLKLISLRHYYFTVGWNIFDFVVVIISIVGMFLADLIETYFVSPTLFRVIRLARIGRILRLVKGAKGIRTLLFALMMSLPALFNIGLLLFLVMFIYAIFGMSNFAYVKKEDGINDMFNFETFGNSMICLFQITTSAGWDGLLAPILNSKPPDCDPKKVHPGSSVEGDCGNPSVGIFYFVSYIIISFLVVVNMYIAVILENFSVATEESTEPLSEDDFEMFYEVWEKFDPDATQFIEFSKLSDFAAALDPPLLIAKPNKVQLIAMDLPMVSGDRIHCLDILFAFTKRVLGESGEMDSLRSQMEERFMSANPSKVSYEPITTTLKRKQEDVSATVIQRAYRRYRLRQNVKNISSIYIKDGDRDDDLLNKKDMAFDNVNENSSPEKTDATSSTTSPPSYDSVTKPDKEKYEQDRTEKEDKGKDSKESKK
Target sequence in this assay (Q07699 whole entry partner, looked up): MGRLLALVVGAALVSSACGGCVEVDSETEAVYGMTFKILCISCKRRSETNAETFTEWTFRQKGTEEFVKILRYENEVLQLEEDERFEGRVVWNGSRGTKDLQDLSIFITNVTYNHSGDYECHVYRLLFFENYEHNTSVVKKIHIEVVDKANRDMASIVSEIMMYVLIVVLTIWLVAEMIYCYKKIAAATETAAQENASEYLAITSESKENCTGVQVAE

[2] = biological target: T1, hNav1.7; assay: Electrophysiological assay (EP), voltage clamp on Syncropatch 384PE, CHO cells stably expressing Nav1.7; format: cell-based; details: holding potential −50 mV, 7.5 min compound incubation, read-out: EP_SP hNav1.7 EVO IC50
Outline: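 Whole-cell automated patch clamp was run on CHO cells stably expressing human Nav1.7 cDNA, with internal solution CsCl/EGTA pH 7.2, external solution 80 mM NaCl pH 7.4, and 0.1% Pluronic F-127. From a −50 mV holding potential: −10 mV for 10 ms, −150 mV for 20 ms, then −10 mV for 10 ms, where current was measured. Inhibition was taken after 7.5 min compound incubation, with TTX added for full block.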
Target sequence in this assay (Q15858 other isoform, or with tags, fused parts or gaps): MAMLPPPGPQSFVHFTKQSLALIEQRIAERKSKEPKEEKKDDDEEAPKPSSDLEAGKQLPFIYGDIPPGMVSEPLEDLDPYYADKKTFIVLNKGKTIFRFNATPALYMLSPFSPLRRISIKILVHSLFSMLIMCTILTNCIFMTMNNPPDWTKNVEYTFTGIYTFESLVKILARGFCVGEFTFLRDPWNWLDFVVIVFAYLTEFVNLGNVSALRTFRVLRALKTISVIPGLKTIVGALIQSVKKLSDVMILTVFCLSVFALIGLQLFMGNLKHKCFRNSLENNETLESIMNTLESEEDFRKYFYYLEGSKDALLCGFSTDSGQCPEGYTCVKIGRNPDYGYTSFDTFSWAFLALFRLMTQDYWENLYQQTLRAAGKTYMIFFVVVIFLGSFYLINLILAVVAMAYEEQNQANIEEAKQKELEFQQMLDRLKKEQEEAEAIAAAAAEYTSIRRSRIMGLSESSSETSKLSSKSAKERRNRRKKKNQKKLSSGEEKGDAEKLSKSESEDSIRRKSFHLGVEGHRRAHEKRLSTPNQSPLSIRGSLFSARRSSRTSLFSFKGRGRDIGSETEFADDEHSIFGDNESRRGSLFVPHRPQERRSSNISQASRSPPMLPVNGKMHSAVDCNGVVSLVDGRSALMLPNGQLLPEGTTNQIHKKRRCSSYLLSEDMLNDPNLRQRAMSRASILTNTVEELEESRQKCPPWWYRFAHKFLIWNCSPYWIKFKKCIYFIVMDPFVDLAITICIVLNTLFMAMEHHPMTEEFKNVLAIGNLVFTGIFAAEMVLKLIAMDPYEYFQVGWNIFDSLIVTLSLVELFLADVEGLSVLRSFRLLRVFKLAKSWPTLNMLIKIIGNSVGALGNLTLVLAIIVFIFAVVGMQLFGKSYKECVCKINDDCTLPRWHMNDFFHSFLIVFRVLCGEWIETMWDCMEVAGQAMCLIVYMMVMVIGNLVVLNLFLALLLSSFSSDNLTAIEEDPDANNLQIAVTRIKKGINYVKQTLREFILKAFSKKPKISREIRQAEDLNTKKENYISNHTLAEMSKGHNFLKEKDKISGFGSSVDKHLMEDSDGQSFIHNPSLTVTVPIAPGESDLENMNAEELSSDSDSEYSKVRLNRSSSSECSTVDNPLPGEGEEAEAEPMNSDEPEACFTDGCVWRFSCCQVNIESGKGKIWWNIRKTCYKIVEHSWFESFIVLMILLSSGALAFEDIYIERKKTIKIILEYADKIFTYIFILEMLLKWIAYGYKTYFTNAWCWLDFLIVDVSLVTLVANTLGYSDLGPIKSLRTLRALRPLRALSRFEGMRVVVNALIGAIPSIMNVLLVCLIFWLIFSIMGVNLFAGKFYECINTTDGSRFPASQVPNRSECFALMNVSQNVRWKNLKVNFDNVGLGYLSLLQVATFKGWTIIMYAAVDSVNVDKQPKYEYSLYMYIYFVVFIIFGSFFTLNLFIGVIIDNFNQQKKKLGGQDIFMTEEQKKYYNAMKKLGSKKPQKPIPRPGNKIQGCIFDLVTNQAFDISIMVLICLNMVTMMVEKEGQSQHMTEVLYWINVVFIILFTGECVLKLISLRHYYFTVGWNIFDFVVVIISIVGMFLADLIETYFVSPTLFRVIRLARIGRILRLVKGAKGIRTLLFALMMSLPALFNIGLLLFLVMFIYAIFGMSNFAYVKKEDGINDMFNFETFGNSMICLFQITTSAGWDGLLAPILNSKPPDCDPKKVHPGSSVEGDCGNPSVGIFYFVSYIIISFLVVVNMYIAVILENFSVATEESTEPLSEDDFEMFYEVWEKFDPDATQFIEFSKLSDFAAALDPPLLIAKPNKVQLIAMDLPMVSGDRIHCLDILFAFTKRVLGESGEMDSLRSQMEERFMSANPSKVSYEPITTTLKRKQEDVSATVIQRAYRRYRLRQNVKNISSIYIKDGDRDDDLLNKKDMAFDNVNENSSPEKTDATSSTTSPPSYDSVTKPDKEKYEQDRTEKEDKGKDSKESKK

- IC50 [1]: 55.7 nM
- IC50 [2]: 3.99 nM
Compound: CN(C)[C@H]1C[C@@H](c2cccc(C(F)(F)F)c2Cl)CC[C@@H]1Oc1cc(F)c(S(=O)(=O)Nc2ccncn2)cc1Cl [Example 92, 5-chloro-4-(((1S,2S,4S)-4-(2-chloro-3-(trifluoromethyl)phenyl)-2-(dimethylamino)-cyclohexyl)oxy)-2-fluoro-N-(pyrimidin-4-yl)benzenesulfonamide]
